According to patent US10294202B2, “Pyrrolidinones as herbicides” (FMC Corporation, priority 2013, dated 2019):

Legend:
rice = experiment: Test B flooded paddy test; format: in vivo, Oryza sativa; conditions: 250 g ai/ha, Flood; scale of 0 to 100 where 0 is no effect and 100 is complete control
Method in brief: (§1)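 Scored visually 0–100 (0 no effect, 100 complete control) versus controls after 13 to 15 greenhouse days. Treatment: compound added to paddy water kept 3 cm above soil, on 2-leaf-stage plants.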

ducksalad = experiment: Test B flooded paddy test; format: in vivo, Heteranthera limosa; conditions: 250 g ai/ha, Flood; scale of 0 to 100 where 0 is no effect and 100 is complete control
Method in brief: as §1

wheat (winter wheat) = experiment: Test C pre-/postemergence herbicide test; format: in vivo, Triticum aestivum
Method in brief: (§2)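 Test compounds, formulated in a surfactant-containing non-phytotoxic solvent blend, are applied to seeded loam/sand soil (preemergence) and to young plants at the 1- to 4-leaf stage in peat-based medium (postemergence). Plants stay 13 to 15 days under greenhouse conditions, then are scored visually relative to controls, 0 = no effect, 100 = complete control.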

corn = experiment: Test C pre-/postemergence herbicide test; format: in vivo, Zea mays
Method in brief: as §2

morningglory = experiment: Test C pre-/postemergence herbicide test; format: in vivo, Ipomoea coccinea
Method in brief: as §2

pigweed = experiment: Test C pre-/postemergence herbicide test; format: in vivo, Amaranthus retroflexus
Method in brief: as §2

soybean = experiment: Test C pre-/postemergence herbicide test; format: in vivo, Glycine max
Method in brief: as §2

oat, wild = experiment: Test C pre-/postemergence herbicide test; format: in vivo, Avena fatua
Method in brief: as §2

velvetleaf = experiment: Test C pre-/postemergence herbicide test; format: in vivo, Abutilon theophrasti
Method in brief: as §2

barnyardgrass = experiment: Test C pre-/postemergence herbicide test; format: in vivo, Echinochloa crus-galli
Method in brief: as §2

oilseed rape = experiment: Test C pre-/postemergence herbicide test; format: in vivo, Brassica napus
Method in brief: as §2

waterhemp = experiment: Test C pre-/postemergence herbicide test; format: in vivo, Amaranthus rudis
Method in brief: as §2

[1] = Postemergence, 31 g ai/ha, scale 0 (no effect) to 100 (complete control)
[2] = Postemergence, 62 g ai/ha, scale 0 to 100 (0 no effect, 100 complete control)
[3] = Postemergence, 125 g ai/ha, scale 0 to 100 (0 no effect, 100 complete control)
[4] = Postemergence, 250 g ai/ha, scale 0 to 100 (0 no effect, 100 complete control)
[5] = Preemergence, 62 g ai/ha, scale 0 to 100
[6] = Preemergence, 125 g ai/ha, scale 0 to 100 (0 no effect, 100 complete control)
[7] = Postemergence, 31 g ai/ha, scale 0 to 100 (0 no effect, 100 complete control)
[8] = Postemergence, 62 g ai/ha, scale 0 (no effect) to 100 (complete control)
[9] = Preemergence, 31 g ai/ha, scale 0 to 100, 0 is no effect and 100 is complete control
[10] = Preemergence, 62 g ai/ha, scale 0 to 100 (0 no effect, 100 complete control)

Compound: O=C1NCC(c2ccc(Cl)c(F)c2)C1C(=O)Nc1cccc(F)c1F (centres unmarked) [Compound 52]
- Plant response rating, Rice (rice): 25
- Plant response rating, Ducksalad (ducksalad): 90
- Plant response rating, Wheat (wheat (winter wheat); [1]): 0
- Plant response rating, Wheat (wheat (winter wheat); [2]): 0
- Plant response rating, Wheat (wheat (winter wheat); [3]): 0
- Plant response rating, Wheat (wheat (winter wheat); [4]): 0
- Plant response rating, Wheat (wheat (winter wheat); [5]): 0
- Plant response rating, Wheat (wheat (winter wheat); [6]): 10
- Plant response rating, Corn (corn; [1]): 0
- Plant response rating, Corn (corn; [2]): 0
- Plant response rating, Corn (corn; [3]): 5
- Plant response rating, Corn (corn; [4]): 5
- Plant response rating, Corn (corn; [5]): 10
- Plant response rating, Corn (corn; [6]): 10
- Corn plant response rating (corn; Preemergence, 31 g ai/ha, scale 0 to 100 (0 no effect, 100 complete control)): 10
- Plant response rating, Corn (corn; Preemergence, 250 g ai/ha, scale 0 to 100 (0 no effect, 100 complete control)): 10
- Plant response rating, Morningglory (morningglory; [1]): 5
- Plant response rating, Morningglory (morningglory; [2]): 10
- Plant response rating, Morningglory (morningglory; [3]): 10
- Plant response rating, Morningglory (morningglory; [4]): 30
- Plant response rating, Morningglory (morningglory; [5]): 0
- Plant response rating, Morningglory (morningglory; [6]): 0
- Plant response rating, Pigweed (pigweed; [1]): 25
- Plant response rating, Pigweed (pigweed; [2]): 40
- Plant response rating, Pigweed (pigweed; [3]): 50
- Plant response rating, Pigweed (pigweed; [4]): 60
- Plant response rating, Pigweed (pigweed; [5]): 20
- Plant response rating, Pigweed (pigweed; [6]): 55
- Plant response rating, Soybean (soybean; [1]): 0
- Plant response rating, Soybean (soybean; [2]): 0
- Plant response rating, Soybean (soybean; [3]): 5
- Plant response rating, Soybean (soybean; [4]): 5
- Plant response rating, Soybean (soybean; [5]): 10
- Plant response rating, Soybean (soybean; [6]): 15
- Plant response rating, Oat, Wild (oat, wild; [1]): 0
- Plant response rating, Oat, Wild (oat, wild; [2]): 0
- Plant response rating, Oat, Wild (oat, wild; [3]): 0
- Plant response rating, Oat, Wild (oat, wild; [4]): 0
- Plant response rating, Oat, Wild (oat, wild; [5]): 0
- Plant response rating, Oat, Wild (oat, wild; [6]): 0
- Plant response rating, Velvetleaf (velvetleaf; [1]): 10
- Plant response rating, Velvetleaf (velvetleaf; [2]): 20
- Plant response rating, Velvetleaf (velvetleaf; [3]): 20
- Plant response rating, Velvetleaf (velvetleaf; [4]): 35
- Plant response rating, Velvetleaf (velvetleaf; [5]): 5
- Plant response rating, Velvetleaf (velvetleaf; [6]): 5

Compound: O=C1NC[C@H](c2cccc(C(F)(F)F)c2)[C@H]1C(=O)Nc1cccc(F)c1F [Compound 206]
- Plant response rating, Wheat (wheat (winter wheat); [7]): 0
- Plant response rating, Wheat (wheat (winter wheat); [8]): 0
- Plant response rating, Wheat (wheat (winter wheat); [3]): 30
- Plant response rating, Wheat (wheat (winter wheat); [4]): 45
- Wheat plant response rating (wheat (winter wheat); [9]): 35
- Wheat plant response rating (wheat (winter wheat); [10]): 40
- Plant response rating, Wheat (wheat (winter wheat); [6]): 70
- Plant response rating (scale of 0 to 100), Wheat (wheat (winter wheat); Preemergence, 250 g ai/ha): 70
- Plant response rating, Corn (corn; [7]): 0
- Plant response rating, Corn (corn; [8]): 0
- Plant response rating, Corn (corn; [3]): 30
- Plant response rating, Corn (corn; [4]): 50
- Corn plant response rating (corn; [9]): 30
- Corn plant response rating (corn; [10]): 60
- Plant response rating, Corn (corn; [6]): 65
- Plant response rating (scale of 0 to 100), Corn (corn; Preemergence, 250 g ai/ha): 60
- Plant response rating, Morningglory (morningglory; [7]): 20
- Plant response rating, Morningglory (morningglory; [8]): 20
- Plant response rating, Morningglory (morningglory; [3]): 35
- Plant response rating, Morningglory (morningglory; [4]): 45
- Morningglory plant response rating (morningglory; [9]): 0
- Morningglory plant response rating (morningglory; [10]): 0
- Plant response rating, Morningglory (morningglory; [6]): 0
- Plant response rating (scale of 0 to 100), Morningglory (morningglory; Preemergence, 250 g ai/ha): 10
- Plant response rating, Pigweed (pigweed; [7]): 30
- Plant response rating, Pigweed (pigweed; [8]): 40
- Plant response rating, Pigweed (pigweed; [3]): 50
- Plant response rating, Pigweed (pigweed; [4]): 30
- Pigweed plant response rating (pigweed; [9]): 70
- Pigweed plant response rating (pigweed; [10]): 100
- Plant response rating, Pigweed (pigweed; [6]): 100
- Plant response rating (scale of 0 to 100), Pigweed (pigweed; Preemergence, 250 g ai/ha): 85
- Plant response rating, Soybean (soybean; [7]): 5
- Plant response rating, Soybean (soybean; [8]): 5
- Plant response rating, Soybean (soybean; [3]): 5
- Plant response rating, Soybean (soybean; [4]): 5
- Soybean plant response rating (soybean; [9]): 0
- Soybean plant response rating (soybean; [10]): 0
- Plant response rating, Soybean (soybean; [6]): 0
- Plant response rating (scale of 0 to 100), Soybean (soybean; Preemergence, 250 g ai/ha): 0
- Plant response rating, Barnyardgrass (barnyardgrass; [7]): 25
- Plant response rating, Barnyardgrass (barnyardgrass; [8]): 40
- Plant response rating, Barnyardgrass (barnyardgrass; [3]): 80
- Plant response rating, Barnyardgrass (barnyardgrass; [4]): 80
- Barnyardgrass plant response rating (barnyardgrass; [9]): 90
- Plant response rating, Barnyardgrass (barnyardgrass; [5]): 90
- Plant response rating, Barnyardgrass (barnyardgrass; [6]): 95
- Plant response rating (scale of 0 to 100; 0 is no effect, 100 is complete control), Barnyardgrass (barnyardgrass; Preemergence, 250 g ai/ha): 95
- Plant response rating, Oilseed Rape (oilseed rape; [7]): 0
- Plant response rating, Oilseed Rape (oilseed rape; [8]): 30
- Plant response rating, Oilseed Rape (oilseed rape; [3]): 50
- Plant response rating, Oilseed Rape (oilseed rape; [4]): 55
- Oilseed Rape plant response rating (oilseed rape; [9]): 5
- Oilseed Rape plant response rating (oilseed rape; [10]): 70
- Plant response rating, Oilseed Rape (oilseed rape; [6]): 75
- Plant response rating (scale of 0 to 100), Oilseed Rape (oilseed rape; Preemergence, 250 g ai/ha): 90
- Plant response rating, Waterhemp (waterhemp; [7]): 0
- Plant response rating, Waterhemp (waterhemp; [8]): 0
- Plant response rating, Waterhemp (waterhemp; [3]): 35
- Plant response rating, Waterhemp (waterhemp; [4]): 30
- Waterhemp plant response rating (waterhemp; [9]): 70
- Waterhemp plant response rating (waterhemp; [10]): 100
- Plant response rating, Waterhemp (waterhemp; [6]): 100
- Plant response rating (scale of 0 to 100), Waterhemp (waterhemp; Preemergence, 250 g ai/ha): 100
- Plant response rating, Oat, Wild (oat, wild; [7]): 0
- Plant response rating, Oat, Wild (oat, wild; [8]): 5
- Plant response rating, Oat, Wild (oat, wild; [3]): 45
- Plant response rating, Oat, Wild (oat, wild; [4]): 50
- Plant response rating, Velvetleaf (velvetleaf; [7]): 0
- Plant response rating, Velvetleaf (velvetleaf; [8]): 0
- Plant response rating, Velvetleaf (velvetleaf; [3]): 15
- Plant response rating, Velvetleaf (velvetleaf; [4]): 15
- Velvetleaf plant response rating (velvetleaf; [9]): 0
- Velvetleaf plant response rating (velvetleaf; [10]): 50
- Plant response rating, Velvetleaf (velvetleaf; [6]): 40
- Plant response rating (scale of 0 to 100), Velvetleaf (velvetleaf; Preemergence, 250 g ai/ha): 60
